Patent US20070032529A1, “Pyrazole compounds and their use as antidiabetes agents” (Japan Tobacco Inc., priority 2005, published 2007)
pIC50: −log10 of the molar value.

Key:
[1] = molecular target: T1, recombinant human liver glycogen phosphorylase (Homo sapiens, UniProt P06737); assay: Measuring liver glycogen phosphorylase activity (forward reaction system, NADPH absorbance at 340 nm); format: biochemical; settings: enzyme inhibitory activity with respect to liver glycogen phosphorylase; class symbols
T1 construct: made in house; host or cells: Sf9 insect cells (crude homogenate, diluted, used as the enzyme solution)
T1 sequence (P06737 1-847): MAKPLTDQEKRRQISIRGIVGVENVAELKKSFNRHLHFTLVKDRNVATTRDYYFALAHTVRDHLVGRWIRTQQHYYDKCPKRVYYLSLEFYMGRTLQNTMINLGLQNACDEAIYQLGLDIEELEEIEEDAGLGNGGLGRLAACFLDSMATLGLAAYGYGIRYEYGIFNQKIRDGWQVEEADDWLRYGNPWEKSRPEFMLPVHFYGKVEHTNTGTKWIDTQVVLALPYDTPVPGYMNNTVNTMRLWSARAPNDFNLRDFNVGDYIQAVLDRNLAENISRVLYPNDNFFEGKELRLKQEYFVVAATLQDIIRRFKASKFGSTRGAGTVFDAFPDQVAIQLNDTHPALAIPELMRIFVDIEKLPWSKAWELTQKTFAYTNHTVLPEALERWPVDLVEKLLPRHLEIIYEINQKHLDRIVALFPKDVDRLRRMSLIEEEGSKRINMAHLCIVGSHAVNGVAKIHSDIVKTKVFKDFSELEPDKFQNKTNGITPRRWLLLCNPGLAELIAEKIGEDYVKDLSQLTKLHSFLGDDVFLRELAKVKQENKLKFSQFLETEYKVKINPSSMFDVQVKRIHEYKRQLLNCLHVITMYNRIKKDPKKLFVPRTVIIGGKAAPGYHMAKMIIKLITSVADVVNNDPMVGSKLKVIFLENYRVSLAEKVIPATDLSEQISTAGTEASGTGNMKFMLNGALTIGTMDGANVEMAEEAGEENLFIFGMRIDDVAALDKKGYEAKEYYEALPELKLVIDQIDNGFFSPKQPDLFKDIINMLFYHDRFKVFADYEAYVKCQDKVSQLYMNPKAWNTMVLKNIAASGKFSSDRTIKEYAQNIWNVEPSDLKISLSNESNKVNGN
Procedure, shortened: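 Compounds in 1% DMSO; activity taken as blank-subtracted 340 nm absorbance change across 75 min at room temperature. Forward reaction: glucose-1-phosphate released from glycogen converted by coupling enzymes, yielding NADPH; enzyme from recombinant Sf9 homogenate, reaction containing glucose, pH 6.8. IC50 from two-point linear interpolation.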

db/db mice = assay: Measuring blood plasma glucose concentration in db/db mice (hypoglycemic effect); format: in vivo; parameters: key: ++: compounds exhibiting statistically significant hypoglycemic effect at a dose of 10 mg/kg or less; +: compounds exhibiting not significant but obvious hypoglycemic effect at a dose of 10 mg/kg; settings: db/db mice fasted 4 h, oral administration, plasma glucose 1 and 3 hours after administration, dose 10 mg/kg or less, Dunnett test vs solvent
Method: 2. Exemplary Test (2) Method for Measuring Blood Plasma Glucose Concentration
Using db/db mice representing an obesity type of diabetic model were used to examine the effect of compound (1) of the present invention on glucose concentrations in plasma. Plasma glucose concentrations of the db/db mice (9-18 weeks old) were measured, and the mice were divided into groups each of 5 or 8 mice such that there would be no difference in the average value of plasma glucose concentrations. After fasting for four hours, the example compound or the solvent (0.5% methylcellulose) was administered orally to the db/db mice, and plasma glucose concentrations were measured 1 and 3 hours after administration. The analysis of the hypoglycemic effect of the example compound was performed through a statistical test at every hour between the group receiving the solvent and the groups of example compound (Dunnett test).

SMILES	pIC50 [1]	vivo (hypoglycemic effect in db/db mice) (db/db mice)
O=C(NCc1ccc(F)cc1F)c1cc(NC(=O)c2cc(F)c(F)cc2Cl)[nH]n1 [Example 1-19]	> 7.00	+
O=C(NCc1c(F)cccc1F)c1cc(NC(=O)c2cc(F)c(F)cc2Cl)[nH]n1 [Example 1-21]	> 7.00	+
CC(C)Oc1ncccc1CNC(=O)c1cc(NC(=O)c2cc(F)c(F)cc2Cl)[nH]n1 [Example 1-24]	> 7.00	+
O=C(NCc1cccnc1Oc1ccccc1)c1cc(NC(=O)c2cc(F)c(F)cc2Cl)[nH]n1 [Example 1-25]	> 7.00	+
O=C(NCc1ncc(F)cc1F)c1cc(NC(=O)c2cc(F)c(F)cc2Cl)[nH]n1 [Example 1-26]	> 7.00	+
CC(C)Oc1ccc(CNC(=O)c2cc(NC(=O)c3cc(F)c(F)cc3Cl)[nH]n2)cn1 [Example 1-31]	> 7.00	+
CCOc1ccc(CNC(=O)c2cc(NC(=O)c3cc(F)c(F)cc3Cl)[nH]n2)cn1 [Example 1-37]	> 7.00	+
O=C(NCc1cscn1)c1cc(NC(=O)c2cc(F)c(F)cc2Cl)[nH]n1 [Example 1-38]	> 7.00	+
O=C(NCc1ccc(OCC(F)(F)F)nc1)c1cc(NC(=O)c2cc(F)c(F)cc2Cl)[nH]n1 [Example 1-39]	> 7.00	+
Cc1cccc(C)c1CNC(=O)c1cc(NC(=O)c2cc(F)c(F)cc2Cl)[nH]n1 [Example 1-40]	> 7.00	+
O=C(NCc1csc(-c2cccnc2)n1)c1cc(NC(=O)c2cc(F)c(F)cc2Cl)[nH]n1 [Example 1-41]	> 7.00	+
O=C(NCc1nc2ccccc2[nH]1)c1cc(NC(=O)c2cc(F)c(F)cc2Cl)[nH]n1 [Example 1-42]	> 7.00	+
Cc1noc(C)c1CNC(=O)c1cc(NC(=O)c2cc(F)c(F)cc2Cl)[nH]n1 [Example 1-46]	> 7.00	++
Cl.Cn1c(CNC(=O)c2cc(NC(=O)c3cc(F)c(F)cc3Cl)[nH]n2)nc2ccccc21 [Example 1-50]	> 7.00	+
O=C(NCc1nc2ccccc2s1)c1cc(NC(=O)c2cc(F)c(F)cc2Cl)[nH]n1 [Example 1-52]	> 7.00	+
Cc1ccc(CNC(=O)c2cc(NC(=O)c3cc(F)c(F)cc3Cl)[nH]n2)c(Cl)n1 [Example 1-56]	> 7.00	+
COc1ccnc(CNC(=O)c2cc(NC(=O)c3cc(F)c(F)cc3Cl)[nH]n2)c1OC [Example 1-59]	> 7.00	++
Cc1nc(N2CCOCC2)sc1CNC(=O)c1cc(NC(=O)c2cc(F)c(F)cc2Cl)[nH]n1 [Example 1-63]	> 7.00	+
COc1ccccc1CNC(=O)c1cc(NC(=O)c2cc(F)c(F)cc2Cl)[nH]n1 [Example 1-66]	> 7.00	+
COc1cccc(CNC(=O)c2cc(NC(=O)c3cc(F)c(F)cc3Cl)[nH]n2)c1 [Example 1-67]	> 7.00	+
COc1ccc(CNC(=O)c2cc(NC(=O)c3cc(F)c(F)cc3Cl)[nH]n2)cc1 [Example 1-68]	> 7.00	+
Cc1ccc(CNC(=O)c2cc(NC(=O)c3cc(F)c(F)cc3Cl)[nH]n2)cc1 [Example 1-69]	> 7.00	+

SMILES	pIC50 [1]	vivo (hypoglycemic effect in db/db mice) (db/db mice)
O=C(NCc1ccc(F)cc1)c1cc(NC(=O)c2cc(F)c(F)cc2Cl)[nH]n1 [Example 1-70]	> 7.00	++
O=C(NCc1ccc(Cl)cc1)c1cc(NC(=O)c2cc(F)c(F)cc2Cl)[nH]n1 [Example 1-71]	> 7.00	+
COC(=O)c1ccc(CNC(=O)c2cc(NC(=O)c3cc(F)c(F)cc3Cl)[nH]n2)cc1 [Example 1-72]	> 7.00	+
O=C(O)c1ccc(CNC(=O)c2cc(NC(=O)c3cc(F)c(F)cc3Cl)[nH]n2)cc1 [Example 1-73]	> 7.00	+
CN(C(=O)c1cc(NC(=O)c2cc(F)c(F)cc2Cl)[nH]n1)C1CCCCC1 [Example 1-78]	> 7.00	+
CCN(C(=O)c1cc(NC(=O)c2cc(F)c(F)cc2Cl)[nH]n1)C1CCCCC1 [Example 1-80]	> 7.00	+
C=CCN(C(=O)c1cc(NC(=O)c2cc(F)c(F)cc2Cl)[nH]n1)C1CCCCC1 [Example 1-81]	> 7.00	+
O=C(Nc1cc(C(=O)N(Cc2ccccn2)C2CCCCC2)n[nH]1)c1cc(F)c(F)cc1Cl [Example 1-82]	> 7.00	+
Cl.O=C(NCc1ccc2c(c1)OCO2)c1cc(NC(=O)c2cc(F)c(F)cc2Cl)[nH]n1 [Example 1-84]	> 7.00	++
CCCCN(CC)C(=O)c1cc(NC(=O)c2cc(F)c(F)cc2Cl)[nH]n1 [Example 1-87]	> 7.00	+
CCCN(C(=O)c1cc(NC(=O)c2cc(F)c(F)cc2Cl)[nH]n1)C1CCCCC1 [Example 1-88]	> 7.00	+
COCCN(C(=O)c1cc(NC(=O)c2cc(F)c(F)cc2Cl)[nH]n1)C1CCCCC1 [Example 1-90]	> 7.00	+
O=C(Nc1cc(C(=O)N(Cc2cccnc2)C2CCCCC2)n[nH]1)c1cc(F)c(F)cc1Cl [Example 1-91]	> 7.00	+
CCCN(CCOC)C(=O)c1cc(NC(=O)c2cc(F)c(F)cc2Cl)[nH]n1 [Example 1-95]	> 7.00	+
CCCCN(C(=O)c1cc(NC(=O)c2cc(F)c(F)cc2Cl)[nH]n1)C1CCOCC1 [Example 1-96]	> 7.00	+
COCCN(C(=O)c1cc(NC(=O)c2cc(F)c(F)cc2Cl)[nH]n1)C1CCCC1 [Example 1-98]	> 7.00	+
COCCCN(C(=O)c1cc(NC(=O)c2cc(F)c(F)cc2Cl)[nH]n1)C1CCCCC1 [Example 1-99]	> 7.00	+
CCOCCN(C(=O)c1cc(NC(=O)c2cc(F)c(F)cc2Cl)[nH]n1)C1CCCCC1 [Example 1-100]	> 7.00	+
CCCCN(Cc1cccnc1)C(=O)c1cc(NC(=O)c2cc(F)c(F)cc2Cl)[nH]n1 [Example 1-107]	> 7.00	++
CCCCN(C(=O)c1cc(NC(=O)c2cc(F)c(F)cc2Cl)[nH]n1)C1CCN(C(=O)C(=O)O)CC1 [Example 1-113]	> 7.00	++
CCCN(Cc1ccc(OC)nc1)C(=O)c1cc(NC(=O)c2cc(F)c(F)cc2Cl)[nH]n1 [Example 1-116]	> 7.00	++
